Measurements taken from ChEMBL document CHEMBL3885861, “Open TG-GATES”.

Species: Rattus norvegicus
Assay: Open TG-GATES - Regimen: Daily Repeat
Format: toxicity, organism-based, Sprague-Dawley
Parameters: regimen Daily Repeat, gender Male, age 6 weeks
Details: in vivo, po, route gavage; for APTT / Bas / Eos / Fbg / Hb / Ht / Lym / MCHC / MCV / Mono / Neu / PT / Plat / RBC / Ret / WBC: tissue Blood; for KIDNEY_L / KIDNEY_R / KIDNEY_TOTAL: tissue Kidney; for LIVER: tissue Liver; for ALP / ALT / AST / BUN / CRE / Ca / Cl / DBIL / GLC / IP / K / LDH / Na / PL / RALB / TBIL / TC / TG / TP / gamma-GTP: tissue Plasma
[1] = 30 mg/kg, 72 h, dose level Middle, time 3 day
[2] = 30 mg/kg, […], dose level Middle, time 7 day
[3] = 30 mg/kg, […], dose level Middle, time 14 day
[4] = 30 mg/kg, […], dose level Middle, time 28 day
[5] = 100 mg/kg, 72 h, dose level High, time 3 day
[6] = 100 mg/kg, […], dose level High, time 7 day
[7] = 100 mg/kg, […], dose level High, time 14 day
[8] = 100 mg/kg, […], dose level High, time 28 day

## CS(=O)(=O)Nc1ccc([N+](=O)[O-])cc1Oc1ccccc1 [NIMESULIDE]
[1]
  TERMINAL_BW: 222.3 g
  APTT: 17.6 s
  Bas: 0%
  Eos: 1.2%
  Fbg: 211.4 mg/dL
  Hb: 13.8 g/dL
  Ht: 41.1%
  Lym: 68.6%
  MCHC: 33.6%
  MCV: 64 fL
  Mono: 10.6%
  Neu: 19.4%
  PT: 11.3 s
  Plat: 114.9 x10_4/uL
  RBC: 642.4 x10_4/ul
  Ret: 9%
  WBC: 80.8 x10_2/uL
  KIDNEY_L: 1 g
  KIDNEY_R: 1.1 g
  KIDNEY_TOTAL: 2.1 g
  LIVER: 11.4 g
  ALP: 888 IU/L
  ALT: 38 IU/L
  AST: 64.6 IU/L
  BUN: 19.6 mg/dL
  CRE: 0.6 mg/dL
  Ca: 10.7 mg/dL
  Cl: 104 meq/L
  DBIL: 0.054 mg/dL
  GLC: 196.8 mg/dL
  IP: 8.2 mg/dL
  K: 4.5 meq/L
  LDH: 91.4 IU/L
  Na: 140.8 meq/L
  PL: 159.2 mg/dL
  RALB: 4.1 g/dL
  TBIL: 0.4 mg/dL
  TC: 90.8 mg/dL
  TG: 75.6 mg/dL
  TP: 5.7 g/dL
  gamma-GTP: 0.8 IU/L
[2]
  TERMINAL_BW: 250.1 g
  APTT: 17.5 s
  Bas: 0%
  Eos: 1.4%
  Fbg: 221.8 mg/dL
  Hb: 14 g/dL
  Ht: 41.4%
  Lym: 78.4%
  MCHC: 33.9%
  MCV: 63.3 fL
  Mono: 6%
  Neu: 14%
  PT: 11.2 s
  Plat: 135 x10_4/uL
  RBC: 655 x10_4/ul
  Ret: 6.6%
  WBC: 109.7 x10_2/uL
  KIDNEY_L: 1.1 g
  KIDNEY_R: 1.1 g
  KIDNEY_TOTAL: 2.2 g
  LIVER: 13 g
  ALP: 823.8 IU/L
  ALT: 36.6 IU/L
  AST: 60.6 IU/L
  BUN: 21.2 mg/dL
  CRE: 0.6 mg/dL
  Ca: 10.6 mg/dL
  Cl: 106 meq/L
  DBIL: 0.018 mg/dL
  GLC: 208.6 mg/dL
  IP: 7.5 mg/dL
  K: 4.5 meq/L
  LDH: 91.2 IU/L
  Na: 141.8 meq/L
  PL: 139.2 mg/dL
  RALB: 4.1 g/dL
  TBIL: 0.4 mg/dL
  TC: 74.2 mg/dL
  TG: 72.2 mg/dL
  TP: 5.9 g/dL
  gamma-GTP: 0.8 IU/L
[3]
  TERMINAL_BW: 313 g
  APTT: 16.8 s
  Bas: 0%
  Eos: 1.2%
  Fbg: 227.6 mg/dL
  Hb: 14.2 g/dL
  Ht: 41.4%
  Lym: 76.2%
  MCHC: 34.4%
  MCV: 61.6 fL
  Mono: 6.6%
  Neu: 16.4%
  PT: 11.7 s
  Plat: 126.4 x10_4/uL
  RBC: 672.8 x10_4/ul
  Ret: 6.1%
  WBC: 127 x10_2/uL
  KIDNEY_L: 1.2 g
  KIDNEY_R: 1.3 g
  KIDNEY_TOTAL: 2.5 g
  LIVER: 17 g
  ALP: 888.2 IU/L
  ALT: 33 IU/L
  AST: 66.4 IU/L
  BUN: 23 mg/dL
  CRE: 0.6 mg/dL
  Ca: 10.7 mg/dL
  Cl: 105 meq/L
  DBIL: 0.004 mg/dL
  GLC: 195.4 mg/dL
  IP: 7.2 mg/dL
  K: 4.6 meq/L
  LDH: 82.2 IU/L
  Na: 141 meq/L
  PL: 155.2 mg/dL
  RALB: 4.1 g/dL
  TBIL: 0.4 mg/dL
  TC: 77 mg/dL
  TG: 120 mg/dL
  TP: 6 g/dL
  gamma-GTP: 1 IU/L
[4]
  TERMINAL_BW: 399.9 g
  APTT: 18.5 s
  Bas: 0%
  Eos: 1%
  Fbg: 219.2 mg/dL
  Hb: 15.3 g/dL
  Ht: 45%
  Lym: 82.8%
  MCHC: 34.1%
  MCV: 58.1 fL
  Mono: 6%
  Neu: 10.4%
  PT: 11.7 s
  Plat: 112.1 x10_4/uL
  RBC: 775.2 x10_4/ul
  Ret: 2.8%
  WBC: 129 x10_2/uL
  KIDNEY_L: 1.4 g
  KIDNEY_R: 1.4 g
  KIDNEY_TOTAL: 2.8 g
  LIVER: 17.8 g
  ALP: 831.6 IU/L
  ALT: 37.2 IU/L
  AST: 65 IU/L
  BUN: 25.8 mg/dL
  CRE: 0.6 mg/dL
  Ca: 10.5 mg/dL
  Cl: 107.2 meq/L
  DBIL: 0.002 mg/dL
  GLC: 198.4 mg/dL
  IP: 7 mg/dL
  K: 4.6 meq/L
  LDH: 92.6 IU/L
  Na: 144 meq/L
  PL: 169 mg/dL
  RALB: 4.1 g/dL
  TBIL: 0.4 mg/dL
  TC: 80.4 mg/dL
  TG: 159.4 mg/dL
  TP: 6.3 g/dL
  gamma-GTP: 1.4 IU/L
[5]
  TERMINAL_BW: 201.1 g
  APTT: 17.3 s
  Bas: 0%
  Eos: 1.4%
  Fbg: 222 mg/dL
  Hb: 14.1 g/dL
  Ht: 41.6%
  Lym: 66.8%
  MCHC: 34%
  MCV: 64.1 fL
  Mono: 8.6%
  Neu: 22.8%
  PT: 11.6 s
  Plat: 113.5 x10_4/uL
  RBC: 649.4 x10_4/ul
  Ret: 6.7%
  WBC: 100.9 x10_2/uL
  KIDNEY_L: 0.9 g
  KIDNEY_R: 0.9 g
  KIDNEY_TOTAL: 1.9 g
  LIVER: 10.5 g
  ALP: 841.4 IU/L
  ALT: 37.4 IU/L
  AST: 63.8 IU/L
  BUN: 21.8 mg/dL
  CRE: 0.5 mg/dL
  Ca: 10.9 mg/dL
  Cl: 105 meq/L
  DBIL: 0.06 mg/dL
  GLC: 178.2 mg/dL
  IP: 6.7 mg/dL
  K: 4.4 meq/L
  LDH: 97.2 IU/L
  Na: 141.4 meq/L
  PL: 168.2 mg/dL
  RALB: 4.1 g/dL
  TBIL: 0.3 mg/dL
  TC: 91.2 mg/dL
  TG: 60.6 mg/dL
  TP: 5.6 g/dL
  gamma-GTP: 1.8 IU/L
[6]
  TERMINAL_BW: 235.6 g
  APTT: 19.1 s
  Bas: 0%
  Eos: 1.2%
  Fbg: 275.5 mg/dL
  Hb: 13.3 g/dL
  Ht: 39.3%
  Lym: 62.5%
  MCHC: 33.7%
  MCV: 63 fL
  Mono: 6.2%
  Neu: 30.2%
  PT: 11.2 s
  Plat: 135.9 x10_4/uL
  RBC: 624.5 x10_4/ul
  Ret: 11.2%
  WBC: 138.2 x10_2/uL
  KIDNEY_L: 1.1 g
  KIDNEY_R: 1.1 g
  KIDNEY_TOTAL: 2.2 g
  LIVER: 12.7 g
  ALP: 860.8 IU/L
  ALT: 32.2 IU/L
  AST: 63.2 IU/L
  BUN: 20 mg/dL
  CRE: 0.6 mg/dL
  Ca: 10.9 mg/dL
  Cl: 105.5 meq/L
  DBIL: 0.0275 mg/dL
  GLC: 199.5 mg/dL
  IP: 6.6 mg/dL
  K: 4.4 meq/L
  LDH: 75.8 IU/L
  Na: 141.2 meq/L
  PL: 166.8 mg/dL
  RALB: 4 g/dL
  TBIL: 0.4 mg/dL
  TC: 92 mg/dL
  TG: 68.5 mg/dL
  TP: 6 g/dL
  gamma-GTP: 1.5 IU/L
[7]
  TERMINAL_BW: 287.5 g
  APTT: 17.7 s
  Bas: 0%
  Eos: 1.4%
  Fbg: 250.2 mg/dL
  Hb: 13.6 g/dL
  Ht: 39.4%
  Lym: 55.8%
  MCHC: 34.4%
  MCV: 65.7 fL
  Mono: 9.8%
  Neu: 32.8%
  PT: 11.6 s
  Plat: 141.2 x10_4/uL
  RBC: 605 x10_4/ul
  Ret: 14%
  WBC: 143.9 x10_2/uL
  KIDNEY_L: 1.2 g
  KIDNEY_R: 1.3 g
  KIDNEY_TOTAL: 2.5 g
  LIVER: 16.1 g
  ALP: 842 IU/L
  ALT: 31.4 IU/L
  AST: 60.8 IU/L
  BUN: 24.6 mg/dL
  CRE: 0.6 mg/dL
  Ca: 10.7 mg/dL
  Cl: 105.4 meq/L
  DBIL: 0.008 mg/dL
  GLC: 184.8 mg/dL
  IP: 7 mg/dL
  K: 4.5 meq/L
  LDH: 79.8 IU/L
  Na: 141.6 meq/L
  PL: 171 mg/dL
  RALB: 4 g/dL
  TBIL: 0.4 mg/dL
  TC: 90.4 mg/dL
  TG: 98.8 mg/dL
  TP: 5.9 g/dL
  gamma-GTP: 2.2 IU/L
[8]
  TERMINAL_BW: 332.9 g
  APTT: 18.9 s
  Bas: 0%
  Eos: 1.4%
  Fbg: 235.2 mg/dL
  Hb: 15.4 g/dL
  Ht: 45.6%
  Lym: 71.8%
  MCHC: 33.7%
  MCV: 59.4 fL
  Mono: 8%
  Neu: 19.2%
  PT: 11.9 s
  Plat: 118.9 x10_4/uL
  RBC: 769.2 x10_4/ul
  Ret: 4%
  WBC: 126.2 x10_2/uL
  KIDNEY_L: 1.3 g
  KIDNEY_R: 1.3 g
  KIDNEY_TOTAL: 2.6 g
  LIVER: 17 g
  ALP: 656.6 IU/L
  ALT: 27.6 IU/L
  AST: 57.8 IU/L
  BUN: 24 mg/dL
  CRE: 0.6 mg/dL
  Ca: 10.9 mg/dL
  Cl: 107.4 meq/L
  DBIL: 0.018 mg/dL
  GLC: 180.6 mg/dL
  IP: 6.8 mg/dL
  K: 4.5 meq/L
  LDH: 71.2 IU/L
  Na: 144.4 meq/L
  PL: 182.2 mg/dL
  RALB: 4.2 g/dL
  TBIL: 0.4 mg/dL
  TC: 100.4 mg/dL
  TG: 102.6 mg/dL
  TP: 6.2 g/dL
  gamma-GTP: 1.6 IU/L
